US9358272B2, “Multicomponent compositions and their uses” (THE ADMINISTRATORS OF THE TULANE EDUCATIONAL FUND, priority 2011, dated 2016)
“Also recorded” adds a separate entry of the source.

Assays:
[1] = tested on: colonrectal cancer HT-29 cells; test: Cell proliferation assay (MTT), HT-29 cells; type: cell-based, Human; details: single agents and combinations
Protocol: Cell Proliferation Assay (MTT)
The cell proliferation assay was performed as described previously in Sun et al., Bioorg Med Chem Lett, 2004, Vol. 14, pp. 2041-2046. Briefly, 50 μl aliquots of medium with different concentrations of compounds were added to 96-well plates. All compound concentrations were tested in triplicate. Another 50 μl of the cell stock (1×10^5 cells/ml of media) was dispensed into each test well and the plates were incubated at 37° C. in a CO2 incubator for 3 days. Following the incubation period, 15 μl of the dye solution was added to each well and the plates were then incubated at 37° C. for 4 hours, followed by the addition of 100 μl per well of the solubilization solution. The plates were incubated at 37° C. until the contents in each well became a uniform-colored solution. The absorbance was measured and recorded at 570 nm by a Victor Plate Reader.
The cell proliferation assay (Promega, Madison, Wis.) was performed as described in Sun et al., Bioorg Med Chem Lett, 2004, Vol. 14, pp. 2041-2046. The absorbance was measured and recorded at 570 nm by a Victor Plate Reader (PerkinElmer, Boston, Mass.).

[2] = tested on: gene expression in pancreatic carcinoid BON cells; test: RT-PCR / real-time PCR gene expression, BON cells; type: cell-based, Human
Protocol: RT-PCR, Real-Time PCR and PCR Array
Total RNAs were isolated from tumor cells as described in the kit protocol (Invitrogen, Carlsbad, Calif.).
As for real-time PCR, the primers are the same as described in Table 1. Real-time PCR assays were performed on a Bio-Rad iCycler (Hercules Calif.). Assays were set up using iScript™ cDNA Synthesis Kit and iQ™ SYBR Green Supermix (Bio-Rad). The cDNA synthesis was run for one cycle of 25° C. for 5 min, 42° C. for 30 min, 85° C. for 5 min, and held at 4° C. PCR reactions were run in 10 μl reactions. Each 10 μl reaction contained 4 μl template (either cDNA, genomic or plasmid DNA), 5 μl iQ SYBR Green Supermix (BioRad), and 0.25 μM each of the corresponding forward and reverse primers. PCR was further run under the conditions below: one cycle of 95° C. for 5 min for initial denaturation and 40 cycles of 95° C. for 30 s and 56° C. (SST), 57° C. (SSTR2) for 30 s for primer annealing and product elongation. For melt curve data collection and analysis, one cycle of 95° C. for 1 min and 55° C. for 1 min was run with an increase of the temperature at a rate of 0.5° C. from 55° C. to 95° C. The experiments were done by holding at 15° C. β-actin was used as internal control. Results were calculated using the comparative 2^−ΔΔCT methods as described in Livak et al., Methods, 2001, Vol. 25, pp. 402-408.
RT-PCR was performed on total RNA that was isolated from tumor cells as described in the protocol (Invitrogen, Carlsbad, Calif.). All primers for SST, BN, and PACAP receptors were obtained from previously published reports, such as Sun et al. 2011. The PCR amplification is regularly 35 cycles, with more or less cycles due to the difference in RNA abundance of these investigated genes. Primers used for real-time PCR analyses were identical to those described above. Real-time PCR assays were performed as described in Sun et al 2011. β-actin was used as the internal control and results were calculated by applying 2^−ΔΔCT methods as described above.

osteosarcoma U2OS cells = test: VPA-induced cell morphological change, U2OS cells; type: cell-based, Human
From the text: (§1) The cancer cells were inspected and photographed under an inverted light microscope at 10× magnification.

MTC TT cells = test: VPA-induced cell morphological change, TT cells; type: cell-based
From the text: as §1

[3] = tested on: pancreatic carcinoid BON cells; test: Cell proliferation assay (MTT), BON cells; type: cell-based, Human; details: single agents and combinations, 2.5 mM VPA or 10 uM SBHA in FIGS. 20, 23
Protocol: Briefly, fifty μl of medium with or without tested compounds was added to 96-well plates. Another 50 μl of tested cancer cells (1×10^5 cells/ml) suspended in culture medium was dispensed into each well. The plates were incubated at 37° C. for 3 days. Afterward, plates were added with a 15 μl dye solution per well and incubated at 37° C. for 4 hours. To each well was then added 100 μl of the solubilization solution and the plates were incubated at 37° C. again until the contents in each well became a uniformly colored solution. The plates were measured at 570 nm by a Victor Reader (PerkinElmer).

[4] = tested on: medullary thyroid cancer (MTC) TT cells; test: Cell proliferation assay (MTT), TT cells; type: cell-based; details: single agents and combinations
cancer DU-145 cells = test: VPA-induced cell morphological change, DU-145 cells; type: cell-based
From the text: as §1

Leukemia MOLT-4 cells = test: Cell proliferation assay (MTT), MOLT-4 cells; type: cell-based; details: single agents and combinations
Protocol: Cell Proliferation Assay (MTT) The cell proliferation assay (Promega, Madison, Wis.) was performed as described in Sun et al., Bioorg Med Chem Lett, 2004, Vol. 14, pp. 2041-2046. The absorbance was measured and recorded at 570 nm by a Victor Plate Reader (PerkinElmer, Boston, Mass.).

CCCC(CCC)C(=O)O [VPA, valproic acid]
cell growth suppression (MTT), in words [1]: displayed its anti-proliferative ability; also recorded: displays its anti-proliferation ability
effect on expression of Notch receptors (RT-PCR), in words ([2]; VPA at serial doses, FIG. 52): increased the expression of Notch1, Notch2, and Notch3; Notch4 was undetectable
induction of SSTR2 expression ([2]; VPA treatment, confirmed by real-time PCR): 25 fold
effect on expression of SST, BN and PACAP receptors (RT-PCR), in words ([2]; VPA treatment, dose-dependent, FIG. 55): induced the expression of SSTR2 (25-fold, confirmed by real-time PCR), SSTR4, BRS3, GRPR, and VPAC2 and suppressed SSTR1
slight decrease of SSTR5 expression ([2]; VPA treatment, real-time PCR): 0.9 fold
effect on Notch1, SST, and SSTR2 expression, in words ([2]; different concentrations of VPA, beta-actin as control, FIG. 17): activated expression of Notch1, SST, and SSTR2
cell morphological change, in words (osteosarcoma U2OS cells): could induce morphological change
cell morphological change, in words (MTC TT cells): no effect
cell growth suppression (MTT), in words [3]: displayed growth inhibition; also recorded: induced growth arrest; also recorded: suppressed growth
cell growth suppression (MTT), in words [4]: induced growth arrest
cell morphological change, in words (cancer DU-145 cells): no effect
cell growth suppression (MTT), in words (Leukemia MOLT-4 cells): displayed its anti-proliferative ability; also recorded: suppressed growth; also recorded: displays its anti-proliferation ability
